Test results: article PMC9725750, “The clinical pharmacology of tafenoquine in the radical cure of Plasmodium vivax malaria: An individual patient data meta-analysis” (eLife, 2022)
Where two headings read alike, the source gives them in different places.

Assays:
blood MetHb = assay: Blood methaemoglobin (MetHb) concentration on day 7 by pulse CO-oximeter; format: in vivo, human
From the text: All patients in the phase 1 trial and the three efficacy trials had frequent blood MetHb measurements taken using non-invasive signal extraction pulse CO-oximeter handheld machines. For the three efficacy trials, we excluded measurements taken at or after recurrence of vivax malaria. Because erroneous readings from the handheld oximeters can occur, we inspected visually the longitudinal MetHb curves for each patient. […] All patients from this site were excluded from the MetHb analysis ( n =91), resulting in a total of 9632 MetHb measurements across 746 P. vivax infected patients and 72 healthy volunteers.

[1] = cited from earlier work
[2] = Population pharmacokinetic modelling of plasma tafenoquine (patients and healthy volunteers); format: in vivo, human; conditions: for Patient – MTT covariate / Patient – Vc/F covariate / Patient – Vp/F covariate: Malaria patients: 1 + Θ; for Vomit – F covariate: Vomiting: 1 + Θ; for Age – CL/F covariate: linear, 1 + Θ × (Age-35); for Vd/F: human, plasma, oral, read-out: Vc/F, apparent central volume of distribution; for IIV CL/F, inter-individual variability / IIV F, inter-individual variability / IIV MTT, inter-individual variability / IIV Q/F, inter-individual variability / IIV Vp/F, inter-individual variability / RUV, additive residual error: variance estimate
From the text: Tafenoquine pharmacokinetics have been described in detail previously ([Thakkar et al., 2018]). Tafenoquine is a slowly eliminated 8-aminoquinoline antimalarial drug with a terminal elimination half-life of around 15 days. The metabolites have not been well characterised. Tafenoquine pharmacokinetics have been characterised previously by a two-compartment pharmacokinetic (PK) model (i.e. bi-exponential decay model) with allometric scaling of clearance and volume parameters ([Thakkar et al., 2018]). We inspected visually all individual drug level profiles and excluded 10 concentrations from 8 patients which were substantial outliers. A total of 15 malaria patients vomited within one hour of drug administration. […] One patient was not re-dosed and had very low tafenoquine levels during follow-up. We removed this patient from all analyses as it is difficult to estimate the amount of drug ingested. For the remaining 14 patients who vomited and were re-dosed, time since dose was calculated as the time since the second dose (in some patients this was the next day). All available tafenoquine concentration measurements were transformed into their natural logarithms and characterised using nonlinear mixed-effects modelling in the software NONMEM v7.4 (Icon Development Solution, Ellicott City, MD). […] One-, two-, and three-compartment dispositional models were evaluated, as well as different absorption models (i.e. first-order absorption and a fixed number of transit absorption compartments). Inter-individual variability was implemented as an exponential function of all structural PK parameters. The first-order conditional estimation method with interactions (FOCE-I) and subroutine ADVAN5 TRANS1 were used throughout the study. Body weight was implemented as a fixed allometric function on clearance parameters (exponent of 0.75) and as a linear function on volume parameters (exponent of 1.0). Additional, biologically relevant, covariates (i.e. age, sex, vomiting, tafenoquine formulation and patient vs healthy volunteers) were evaluated on all PK parameters using a linearized stepwise addition (p<0.01) and backward elimination (p<0.001) covariate approach.
Potential model mis-specification and systematic errors were evaluated by basic goodness-of-fit diagnostics. Model robustness and parameter confidence intervals were evaluated by a sampling-important-resampling (SIR) procedure ([Dosne et al., 2017]). Predictive performance of the final model was illustrated by prediction-corrected visual predictive checks (n=2,000) ([Bergstrand et al., 2011]). The 5th, 50th, and 95th percentiles of the observed concentrations were overlaid with the 95% confidence intervals of each simulated percentile to detect model bias. Under the population mixed-effects model we estimated for each healthy volunteer and each patient in the three efficacy studies: (i) the area under the plasma concentration time curve ( AUC[0,∞ ); (ii) the maximum peak concentration ( Cmax ); and (iii) the terminal elimination half-life (t1/2). […] Details of the final model are given in Appendix 6.
For the terminal elimination half-life, multiple patients had estimated values greater than 30 days. On examination, the NONMEM model estimates of the terminal elimination half-life were not robust with respect to the model structure. In order to derive robust half-life estimates, we fit a robust (using a student- t likelihood, [Lange et al., 1989]) Bayesian hierarchical linear model to the observed log-concentrations post day 4 (terminal phase; random intercept and slope). […] The half-life is then defined as -log(2)/βi where βi is the individual slope estimate for patient i . Values below the lower limit of quantification were treated as left-censored observations with censoring value equal to log(2 ng/ml). The model included an interaction term between time and the log patient weight (clearance was associated with weight); and a dose (mg/kg) dependent intercept term. […]

[3] = population estimate (%RSE), typical healthy individual 70 kg, 35 years

COc1cc(C)c2c(Oc3cccc(C(F)(F)F)c3)c(OC)cc(NC(C)CCCN)c2n1 (stereo not drawn) [tafenoquine]
increase in day 7 MetHb concentrations per additional mg/kg (blood MetHb; 95% CI 17% to 21%): 19%
lower day 7 methaemoglobinaemia in healthy volunteers compared to patients infected with P. vivax (blood MetHb; adjusted for mg/kg dose, 95% CI 0 to 34%, p=0.02): 15%
day of peak MetHb levels (blood MetHb; after single dose tafenoquine + chloroquine): ~7 days
route of elimination ([1]; ref Brueckner et al., 1998): eliminated via biliary excretion with enterohepatic recirculation, but is not eliminated in the urine
persistence of plasma concentrations above a plausible minimum inhibitory concentration for the asexual activity ([1]; ref Dow and Smith, 2017): up to three months
terminal elimination half-life ([1]; ref Thakkar et al., 2018): about 15 days
CL/F, oral elimination clearance ([2]; SIR median (95% CI)): 3.14 (2.71–3.70) L/h
MTT, mean absorption transit time over 6 transit compartments ([2]; SIR median (95% CI)): 3.05 (2.30–3.87) h
Vp/F, apparent peripheral volume of distribution ([2]; SIR median (95% CI)): 318 (248–424) L
Patient – MTT covariate ([2]; SIR median (95% CI)): 0.929 (0.605–1.51)
Patient – Vc/F covariate ([2]; SIR median (95% CI)): –0.282 (-0.0784–-0.395)
Patient – Vp/F covariate ([2]; SIR median (95% CI)): 1.30 (0.670–1.88)
Vomit – F covariate ([2]; SIR median (95% CI)): 0.434 (0.315–0.608)
Age – CL/F covariate ([2]; SIR median (95% CI)): –0.00435 (-0.00206–-0.00589)
decrease in CL/F per 10 years of age increase from the median age of 35 years ([2]; covariate Age – CL/F, final model): 4.34%
lower central volume of distribution in patients compared to healthy volunteers ([2]; covariate Patient – Vc/F): 27.6%
higher total dose when 1st dose was vomited and re-administered ([2]; covariate Vomit – F, relative oral bioavailability): 44.7%
Vd/F ([2]; SIR median (95% CI)): 1360 L
Vd/F [2, 3]: 1330 L
Patient – MTT covariate ([2]; population estimate (%RSE)): 0.937 (24.7)
Patient – Vc/F covariate ([2]; population estimate (%RSE)): –0.276 (29.4)
Patient – Vp/F covariate ([2]; population estimate (%RSE)): 1.40 (21.6)
Vomit – F covariate ([2]; population estimate (%RSE)): 0.447 (16.3)
Age – CL/F covariate ([2]; population estimate (%RSE)): –0.00434 (23.4)
CL/F, oral elimination clearance [2, 3]: 3.14 (8.43) L/h
MTT, mean absorption transit time over 6 transit compartments [2, 3]: 3.14 (12.8) h
Vp/F, apparent peripheral volume of distribution [2, 3]: 311 (14.4) L
IIV CL/F, inter-individual variability ([2]; SIR median (95% CI)): 0.0349 (0.0193–0.0451)
IIV F, inter-individual variability ([2]; SIR median (95% CI)): 0.0870 (0.0559–0.120)
IIV MTT, inter-individual variability ([2]; SIR median (95% CI)): 0.0887 (0.0585–0.124)
IIV Q/F, inter-individual variability ([2]; SIR median (95% CI)): 0.156 (0.1000–0.226)
IIV Vp/F, inter-individual variability ([2]; SIR median (95% CI)): 0.0265 (0.0153–0.0400)
RUV, additive residual error ([2]; SIR median (95% CI)): 0.0240 (0.0170–0.0333)
IIV CL/F, inter-individual variability ([2]; population estimate (%RSE)): 0.0338 (18.8)
IIV F, inter-individual variability ([2]; population estimate (%RSE)): 0.0850 (19.2)
IIV MTT, inter-individual variability ([2]; population estimate (%RSE)): 0.0831 (21.0)
IIV Q/F, inter-individual variability ([2]; population estimate (%RSE)): 0.151 (20.5)
IIV Vp/F, inter-individual variability ([2]; population estimate (%RSE)): 0.0256 (25.3)
RUV, additive residual error ([2]; population estimate (%RSE)): 0.0225 (18.8)
